From paper PMC11738990, “A small-molecule TNIK inhibitor targets fibrosis in preclinical and clinical models” (Nature Biotechnology, 2024)
Where two headings read alike, the source gives them in different places.

System: A549 cells
Conditions: for E-Cadherin/GAPDH normalized: DMSO=1; for N-Cadherin/GAPDH normalized / Smad2/3/GAPDH normalized / p- Smad2/3/GAPDH normalized / b-catenin/ HDAC2 normalized / b-catenin/ Histone 3 normalized / b-catenin/ tubulin normalized: TGF-β=1; for P65/GAPDH normalized / p-P65/GAPDH normalized: TGF-β+TNF-a=1
[1] = 0.1 μM, TGF-β+TNF-a group, Batch 1
[2] = 0.1 μM, TGF-β+TNF-a group, Batch 2
[3] = 0.1 μM, TGF-β+TNF-a group, Batch 3
[4] = 0.3 μM, TGF-β+TNF-a group, Batch 1
[5] = 0.3 μM, TGF-β+TNF-a group, Batch 2
[6] = 0.3 μM, TGF-β+TNF-a group, Batch 3

Structure (SMILES): CC(C)n1cnc(-c2ccc(F)cc2)c1-c1nc(C(=O)Nc2ccc(N3CCN(C)CC3)cc2)c[nH]1 [INS018_055, 2-[4-(4-fluorophenyl)-1-(prop-2-yl)imidazol-5-yl]-N-[4-(4-methylhexahydropyrazin-1-yl)phenyl]-1H-imidazole-4-carboxamide]
- E-Cadherin/GAPDH normalized (0.1 μM, Batch 1): 0.882
- N-Cadherin/GAPDH normalized (0.1 μM, Batch 1): 0.7004
- Smad2/3/GAPDH normalized (0.1 μM, Batch 1): 1.169
- p- Smad2/3/GAPDH normalized (0.1 μM, Batch 1): 0.1198
- E-Cadherin/GAPDH normalized (0.1 μM, Batch 2): 0.7553
- N-Cadherin/GAPDH normalized (0.1 μM, Batch 2): 0.5859
- Smad2/3/GAPDH normalized (0.1 μM, Batch 2): 1.386
- b-catenin/ HDAC2 normalized (0.1 μM, Batch 2): 0.9011
- b-catenin/ Histone 3 normalized (0.1 μM, Batch 2): 1.011
- b-catenin/ tubulin normalized (0.1 μM, Batch 2): 0.7986
- p- Smad2/3/GAPDH normalized (0.1 μM, Batch 2): 0.1997
- E-Cadherin/GAPDH normalized (0.1 μM, Batch 3): 1.033
- N-Cadherin/GAPDH normalized (0.1 μM, Batch 3): 0.3543
- Smad2/3/GAPDH normalized (0.1 μM, Batch 3): 0.9832
- b-catenin/ HDAC2 normalized (0.1 μM, Batch 3): 0.6944
- b-catenin/ Histone 3 normalized (0.1 μM, Batch 3): 1.35
- b-catenin/ tubulin normalized (0.1 μM, Batch 3): 1.101
- p- Smad2/3/GAPDH normalized (0.1 μM, Batch 3): 0.212
- b-catenin/ HDAC2 normalized (0.1 μM, Batch 4): 1.905
- b-catenin/ Histone 3 normalized (0.1 μM, Batch 4): 0.9078
- b-catenin/ tubulin normalized (0.1 μM, Batch 4): 1.377
- P65/GAPDH normalized (0.1 μM, TGF-β group, Batch 1): 0.4666
- p-P65/GAPDH normalized (0.1 μM, TGF-β group, Batch 1): 0.1387
- P65/GAPDH normalized (0.1 μM, TGF-β group, Batch 2): 0.8513
- p-P65/GAPDH normalized (0.1 μM, TGF-β group, Batch 2): 0.05722
- P65/GAPDH normalized (0.1 μM, TGF-β group, Batch 3): 0.4658
- p-P65/GAPDH normalized (0.1 μM, TGF-β group, Batch 3): 0.04967
- P65/GAPDH normalized [1]: 0.668
- p-P65/GAPDH normalized [1]: 0.6884
- P65/GAPDH normalized [2]: 0.75
- p-P65/GAPDH normalized [2]: 0.7416
- P65/GAPDH normalized [3]: 0.4563
- p-P65/GAPDH normalized [3]: 0.5057
- E-Cadherin/GAPDH normalized (0.3 μM, Batch 1): 1.52
- N-Cadherin/GAPDH normalized (0.3 μM, Batch 1): 0.1615
- Smad2/3/GAPDH normalized (0.3 μM, Batch 1): 1.047
- p- Smad2/3/GAPDH normalized (0.3 μM, Batch 1): 0.03
- E-Cadherin/GAPDH normalized (0.3 μM, Batch 2): 1.01
- N-Cadherin/GAPDH normalized (0.3 μM, Batch 2): 0.2158
- Smad2/3/GAPDH normalized (0.3 μM, Batch 2): 1.249
- b-catenin/ HDAC2 normalized (0.3 μM, Batch 2): 0.8061
- b-catenin/ Histone 3 normalized (0.3 μM, Batch 2): 0.5919
- b-catenin/ tubulin normalized (0.3 μM, Batch 2): 0.4991
- p- Smad2/3/GAPDH normalized (0.3 μM, Batch 2): 0.1456
- E-Cadherin/GAPDH normalized (0.3 μM, Batch 3): 0.9712
- N-Cadherin/GAPDH normalized (0.3 μM, Batch 3): 0.1387
- Smad2/3/GAPDH normalized (0.3 μM, Batch 3): 1.033
- b-catenin/ HDAC2 normalized (0.3 μM, Batch 3): 0.9297
- b-catenin/ Histone 3 normalized (0.3 μM, Batch 3): 0.5389
- b-catenin/ tubulin normalized (0.3 μM, Batch 3): 1.411
- p- Smad2/3/GAPDH normalized (0.3 μM, Batch 3): 0.1442
- b-catenin/ HDAC2 normalized (0.3 μM, Batch 4): 0.672
- b-catenin/ Histone 3 normalized (0.3 μM, Batch 4): 0.7931
- b-catenin/ tubulin normalized (0.3 μM, Batch 4): 1.498
- P65/GAPDH normalized (0.3 μM, TGF-β group, Batch 1): 0.4013
- p-P65/GAPDH normalized (0.3 μM, TGF-β group, Batch 1): 0.07454
- P65/GAPDH normalized (0.3 μM, TGF-β group, Batch 2): 0.8627
- p-P65/GAPDH normalized (0.3 μM, TGF-β group, Batch 2): 0.05473
- P65/GAPDH normalized (0.3 μM, TGF-β group, Batch 3): 0.4505
- p-P65/GAPDH normalized (0.3 μM, TGF-β group, Batch 3): 0.04515
- P65/GAPDH normalized [4]: 0.6352
- p-P65/GAPDH normalized [4]: 0.6859
- P65/GAPDH normalized [5]: 0.8628
- p-P65/GAPDH normalized [5]: 0.7296
- P65/GAPDH normalized [6]: 0.342
- p-P65/GAPDH normalized [6]: 0.3802
- E-Cadherin/GAPDH normalized (1 μM, Batch 1): 1.5017
- N-Cadherin/GAPDH normalized (1 μM, Batch 1): 0.1538
- Smad2/3/GAPDH normalized (1 μM, Batch 1): 1.22
- p- Smad2/3/GAPDH normalized (1 μM, Batch 1): 0.02816
- E-Cadherin/GAPDH normalized (1 μM, Batch 2): 1.0948
- N-Cadherin/GAPDH normalized (1 μM, Batch 2): 0.1737
- Smad2/3/GAPDH normalized (1 μM, Batch 2): 1.233
- b-catenin/ HDAC2 normalized (1 μM, Batch 2): 0.9055
- b-catenin/ Histone 3 normalized (1 μM, Batch 2): 0.7183
- b-catenin/ tubulin normalized (1 μM, Batch 2): 0.408
- p- Smad2/3/GAPDH normalized (1 μM, Batch 2): 0.1116
- E-Cadherin/GAPDH normalized (1 μM, Batch 3): 1.05
- N-Cadherin/GAPDH normalized (1 μM, Batch 3): 0.09916
- Smad2/3/GAPDH normalized (1 μM, Batch 3): 1.054
- b-catenin/ HDAC2 normalized (1 μM, Batch 3): 0.9651
- b-catenin/ Histone 3 normalized (1 μM, Batch 3): 0.7434
- b-catenin/ tubulin normalized (1 μM, Batch 3): 0.8806
- p- Smad2/3/GAPDH normalized (1 μM, Batch 3): 0.1186
